Marks after values point to notes of the source that are not given here.
Tests used:
PC-3 PIP tumor cells = test: In vitro cell uptake of lanthanide chloride salts; type: cell-based, human
Experimental: (§1) A mixture of equal molar amounts of the lanthanide chloride salts (100 nM stock solutions of ^natLuCl3, ^natTbCl3, ^natGdCl3, and ^natEuCl3, diluted in saline with an adjusted pH value to 3.5‒4.0) was prepared to obtain a final concentration of 10 pmol/mL (2.5 pmol/mL per lanthanide salt) and tested with AR42J, PC-3 PIP and KB tumor cells according to the same protocol as described for the Ln-labeled biomolecules (Supplementary Material). Analogous in vitro cell uptake studies were also performed with lanthanide metal complexes of diethylenetriaminepentaacetic acid (DTPA, Sigma Aldrich Chemie, Steinheim, Germany) to obtain a final concentration of 10 pmol/mL (2.5 pmol/mL per lanthanide complex) (Supplementary Material).
(§2) Cell uptake studies were performed in triplicate in 3‒6 independent experiments and the results presented as the average ± standard deviation (SD). Data were normalized to the values measured for the ^175Lu-labeled tumor targeting agent or [^175Lu]LuCl3, which were set as 100% and zero was defined as 0%. Statistical significance of the normalized data was assessed for the comparison of the values obtained for terbium, gadolinium and europium analogues with those obtained for the lutetium counterparts by applying one-way ANOVA with the Dunnett’s post-test using GraphPad Prism software (version 8). A p-value of < 0.05 was considered statistically significant.
(§3) Methods: The same experimental setting as described for Ln-labeled biomolecules was applied to perform uptake and internalization studies with the lanthanide salts (LnCl3; Ln = ^natLu, ^natTb, ^natGd and ^natEu). The applied solution was a mixture of the four lanthanide salts yielding a final concentration of 0.4 µM. Of these mixtures, 25 μL were added to the corresponding well with tumor cells. The cells were incubated for 1 h and 4 h, respectively, at 37 °C and 5% CO2. After incubation, the tumor cells were treated as described for the Ln-labeled biomolecules and processed for the measurement with ICP-MS.

AR42J tumor cells = test: In vitro cell uptake of lanthanide chloride salts; type: cell-based, rat
Experimental: as §1, §2, §3

[1] = tested on: non-tumor-bearing immunocompetent FVB mice; test: Biodistribution of lanthanide chloride salts LnCl3 (multiplexed ICP-MS); type: in vivo; settings: for Tissue uptake: Blood / Tissue uptake: Bone / Tissue uptake: Brain / Tissue uptake: Heart / Tissue uptake: Intestines / Tissue uptake: Kidneys / Tissue uptake: Liver / Tissue uptake: Lung / Tissue uptake: Muscle / Tissue uptake: Pancreas / Tissue uptake: Salivary glands / Tissue uptake: Spleen / Tissue uptake: Stomach: non-tumor-bearing mice
KB tumor cells = test: In vitro cell uptake of lanthanide chloride salts; type: cell-based, human; settings: 1 h incubation
Experimental: as §1, §2, §3

[2] = tested on: non-tumor-bearing immunocompetent FVB mice; test: Dual-isotope SPECT/CT imaging of [177Lu]LuCl3 and [161Tb]TbCl3; type: in vivo; settings: radiolanthanides in chloride form
Experimental: Dual-isotope SPECT studies with mice were performed as previously reported. Tumor-bearing nude mice (n = 2‒3 for each type of radioconjugate) were injected with 20 MBq (1 nmol) of a mixture of ^177Lu- and ^161Tb-labeled tumor-targeting agents (each 10 MBq, 0.5 nmol) diluted in saline containing 0.05% BSA. Non-tumor-bearing immunocompetent FVB mice (n = 2) were injected with 20 MBq of a mixture of [^177Lu]LuCl3 (10 MBq, 13.8 pmol) and [^161Tb]TbCl3 (10 MBq, 14.3 pmol) diluted with saline containing 0.05% BSA with a final pH value of 4.5. Additional mice (n = 2) were injected with colloids of lutetium-177 and terbium-161 obtained by diluting the chloride salts with PBS of pH 7.4 (Supplementary Material). SPECT/CT images were acquired 1 h, 4 h and 24 h after injection of the activity solutions using a dedicated small-animal SPECT/CT scanner (NanoSPECT/CT, Mediso Medical Imaging Systems, Budapest, Hungary) and the Nucline software (version 1.02, Mediso Ltd., Budapest, Hungary). Counts stemming from the γ-lines of lutetium-177 (112.9 keV ± 10% and 208.4 ± 10%) and the γ-lines and x-rays of terbium-161 (47.7 keV ± 10% and 74.6 keV ± 10%) were simultaneously registered using the respective energy windows for each radionuclide. […]

[3] = 24 h p.i., estimated ratios (organ <0.5% ID/g)
[4] = 96 h p.i., estimated ratios (organ <0.5% ID/g)

For `[Cl][Gd]([Cl])[Cl]` [[^157Gd]GdCl3], the “Fraction retained after acid-wash compared with lutetium” value (PC-3 PIP tumor cells; both incubation times) was “higher”, the “Detected fraction after acid-wash compared with lutetium” value (AR42J tumor cells; 1 h incubation) was “significantly lower” and the “Organ ratios: Blood-to-bone” value ([1]; 1 h p.i.) was 0.37 ± 0.01. For the same compound, the “Organ ratios: Blood-to-liver” value ([1]; 1 h p.i.) was 0.14 ± 0.02, the “Organ ratios: Liver-to-bone” value ([1]; 1 h p.i.) was 2.6 ± 0.4 and the “Tissue uptake: Blood” value ([1]; 1 h p.i.) was 4.9 ± 0.3 % ID/g. For the same compound, the “Tissue uptake: Bone” value ([1]; 1 h p.i.) was 13 ± 1 % ID/g, the “Tissue uptake: Brain” value ([1]; 1 h p.i.) was 1.0 ± 0.6 % ID/g and the “Tissue uptake: Heart” value ([1]; 1 h p.i.) was 5.0 ± 1.7 % ID/g. For the same compound, the “Tissue uptake: Intestines” value ([1]; 1 h p.i.) was 2.5 ± 0.8 % ID/g, the “Tissue uptake: Kidneys” value ([1]; 1 h p.i.) was 8.0 ± 2.0 % ID/g and the “Tissue uptake: Liver” value ([1]; 1 h p.i.) was 34 ± 4 % ID/g. For the same compound, the “Tissue uptake: Lung” value ([1]; 1 h p.i.) was 4.8 ± 0.4 % ID/g, the “Tissue uptake: Muscle” value ([1]; 1 h p.i.) was 1.6 ± 0.6 % ID/g and the “Tissue uptake: Pancreas” value ([1]; 1 h p.i.) was 2.2 ± 0.4 % ID/g. The “Tissue uptake: Salivary glands” value ([1]; 1 h p.i.) was 2.8 ± 1.3 % ID/g, the “Tissue uptake: Spleen” value ([1]; 1 h p.i.) was 6.3 ± 0.9 % ID/g and the “Tissue uptake: Stomach” value ([1]; 1 h p.i.) was 6.2 ± 1.7 % ID/g. For the same compound, the “Organ ratios: Liver-to-bone” value ([1]; 24 h p.i.) was 2.2 ± 0.5, the “Organ ratios: Blood-to-bone” value [1, 3] was <0.03^* and the “Organ ratios: Blood-to-liver” value [1, 3] was <0.02^*. The “Tissue uptake: Blood” value ([1]; 24 h p.i.) was less than 0.5 % ID/g, the “Tissue uptake: Bone” value ([1]; 24 h p.i.) was 14 ± 2 % ID/g and the “Tissue uptake: Brain” value ([1]; 24 h p.i.) was less than 0.5 % ID/g. The “Tissue uptake: Heart” value ([1]; 24 h p.i.) was 1.2 ± 0.1 % ID/g, the “Tissue uptake: Intestines” value ([1]; 24 h p.i.) was 0.71 ± 0.04 % ID/g and the “Tissue uptake: Kidneys” value ([1]; 24 h p.i.) was 4.0 ± 0.9 % ID/g. The “Tissue uptake: Lung” value ([1]; 24 h p.i.) was 1.3 ± 0.1 % ID/g, the “Tissue uptake: Muscle” value ([1]; 24 h p.i.) was 1.1 ± 0.8 % ID/g and the “Tissue uptake: Pancreas” value ([1]; 24 h p.i.) was 0.61 ± 0.11 % ID/g. The “Tissue uptake: Salivary glands” value ([1]; 24 h p.i.) was 0.77 ± 0.16 % ID/g, the “Tissue uptake: Spleen” value ([1]; 24 h p.i.) was 5.7 ± 1.1 % ID/g and the “Tissue uptake: Stomach” value ([1]; 24 h p.i.) was 2.6 ± 0.1 % ID/g. For the same compound, the “Tissue uptake: Liver” value ([1]; 24 h p.i., listed as gadolinium) was 31 ± 6 % ID/g, the “Tissue uptake: Liver” value ([1]; 24 h p.i., listed as natGd) was ~ 31 % ID/g and the “Organ ratios: Liver-to-bone” value ([1]; 96 h p.i.) was 1.1 ± 0.2. For the same compound, the “Organ ratios: Blood-to-bone” value [1, 4] was <0.03^*, the “Organ ratios: Blood-to-liver” value [1, 4] was <0.03^* and the “Tissue uptake: Blood” value ([1]; 96 h p.i.) was less than 0.5 % ID/g. The “Tissue uptake: Bone” value ([1]; 96 h p.i.) was 17 ± 3 % ID/g, the “Tissue uptake: Brain” value ([1]; 96 h p.i.) was less than 0.5 % ID/g and the “Tissue uptake: Heart” value ([1]; 96 h p.i.) was 1.2 ± 0.1 % ID/g. The “Tissue uptake: Intestines” value ([1]; 96 h p.i.) was 0.66 ± 0.07 % ID/g, the “Tissue uptake: Kidneys” value ([1]; 96 h p.i.) was 2.0 ± 0.1 % ID/g and the “Tissue uptake: Liver” value ([1]; 96 h p.i.) was 18 ± 1 % ID/g. The “Tissue uptake: Lung” value ([1]; 96 h p.i.) was 1.1 ± 0.2 % ID/g, the “Tissue uptake: Muscle” value ([1]; 96 h p.i.) was 0.51 ± 0.12 % ID/g and the “Tissue uptake: Pancreas” value ([1]; 96 h p.i.) was 0.53 ± 0.10 % ID/g. The “Tissue uptake: Salivary glands” value ([1]; 96 h p.i.) was 0.60 ± 0.08 % ID/g, the “Tissue uptake: Spleen” value ([1]; 96 h p.i.) was 3.6 ± 0.3 % ID/g and the “Tissue uptake: Stomach” value ([1]; 96 h p.i.) was 3.1 ± 0.8 % ID/g.

`[Cl][Tb]([Cl])[Cl]` [[^159Tb]TbCl3] was tested, and the “Lanthanide uptake compared with [175Lu]LuCl3” value (PC-3 PIP tumor cells) was “No significant difference”, the “Detected amount compared with lutetium” value (KB tumor cells) was “significantly lower” and the “Lanthanide uptake compared with [175Lu]LuCl3” value (AR42J tumor cells) was “No significant difference”. The “Organ ratios: Blood-to-bone” value ([1]; 1 h p.i.) was 0.38 ± 0.08, the “Organ ratios: Blood-to-liver” value ([1]; 1 h p.i.) was 0.19 ± 0.05 and the “Organ ratios: Liver-to-bone” value ([1]; 1 h p.i.) was 2.0 ± 0.3. For the same compound, the “Tissue uptake: Blood” value ([1]; 1 h p.i.) was 5.0 ± 0.9 % ID/g, the “Tissue uptake: Bone” value ([1]; 1 h p.i.) was 13 ± 2 % ID/g and the “Tissue uptake: Brain” value ([1]; 1 h p.i.) was 1.1 ± 0.8 % ID/g. For the same compound, the “Tissue uptake: Heart” value ([1]; 1 h p.i.) was 4.8 ± 2.2 % ID/g, the “Tissue uptake: Intestines” value ([1]; 1 h p.i.) was 2.6 ± 1.0 % ID/g and the “Tissue uptake: Kidneys” value ([1]; 1 h p.i.) was 8.7 ± 2.5 % ID/g. The “Tissue uptake: Liver” value ([1]; 1 h p.i.) was 27 ± 3 % ID/g, the “Tissue uptake: Lung” value ([1]; 1 h p.i.) was 4.8 ± 1.2 % ID/g and the “Tissue uptake: Muscle” value ([1]; 1 h p.i.) was 1.6 ± 0.9 % ID/g. For the same compound, the “Tissue uptake: Pancreas” value ([1]; 1 h p.i.) was 2.2 ± 1.0 % ID/g, the “Tissue uptake: Salivary glands” value ([1]; 1 h p.i.) was 2.4 ± 1.4 % ID/g and the “Tissue uptake: Spleen” value ([1]; 1 h p.i.) was 6.1 ± 1.4 % ID/g. For the same compound, the “Tissue uptake: Stomach” value ([1]; 1 h p.i.) was 6.0 ± 2.3 % ID/g, the “Organ ratios: Liver-to-bone” value ([1]; 24 h p.i.) was 1.6 ± 0.5 and the “Organ ratios: Blood-to-bone” value [1, 3] was <0.04^*. The “Organ ratios: Blood-to-liver” value [1, 3] was <0.02^*, the “Tissue uptake: Blood” value ([1]; 24 h p.i.) was less than 0.5 % ID/g and the “Tissue uptake: Bone” value ([1]; 24 h p.i.) was 15 ± 2 % ID/g. The “Tissue uptake: Brain” value ([1]; 24 h p.i.) was less than 0.5 % ID/g, the “Tissue uptake: Heart” value ([1]; 24 h p.i.) was 0.76 ± 0.10 % ID/g and the “Tissue uptake: Intestines” value ([1]; 24 h p.i.) was 0.54 ± 0.05 % ID/g. For the same compound, the “Tissue uptake: Kidneys” value ([1]; 24 h p.i.) was 3.8 ± 0.8 % ID/g, the “Tissue uptake: Lung” value ([1]; 24 h p.i.) was 1.0 ± 0.1 % ID/g and the “Tissue uptake: Muscle” value ([1]; 24 h p.i.) was less than 0.5 % ID/g. The “Tissue uptake: Pancreas” value ([1]; 24 h p.i.) was less than 0.5 % ID/g, the “Tissue uptake: Salivary glands” value ([1]; 24 h p.i.) was less than 0.5 % ID/g and the “Tissue uptake: Spleen” value ([1]; 24 h p.i.) was 5.0 ± 1.1 % ID/g. For the same compound, the “Tissue uptake: Stomach” value ([1]; 24 h p.i.) was 1.8 ± 0.4 % ID/g, the “Tissue uptake: Liver” value ([1]; 24 h p.i., listed as natTb) was ~ 22 % ID/g and the “Tissue uptake: Liver” value ([1]; 24 h p.i., listed as terbium) was 22 ± 5 % ID/g. For the same compound, the “Organ ratios: Liver-to-bone” value ([1]; 96 h p.i.) was 0.59 ± 0.18, the “Organ ratios: Blood-to-bone” value [1, 4] was <0.03^* and the “Organ ratios: Blood-to-liver” value [1, 4] was <0.05^*. The “Tissue uptake: Blood” value ([1]; 96 h p.i.) was less than 0.5 % ID/g, the “Tissue uptake: Bone” value ([1]; 96 h p.i.) was 19 ± 4 % ID/g and the “Tissue uptake: Brain” value ([1]; 96 h p.i.) was less than 0.5 % ID/g. The “Tissue uptake: Heart” value ([1]; 96 h p.i.) was 0.73 ± 0.05 % ID/g, the “Tissue uptake: Intestines” value ([1]; 96 h p.i.) was 0.52 ± 0.01 % ID/g and the “Tissue uptake: Kidneys” value ([1]; 96 h p.i.) was 2.0 ± 0.1 % ID/g. The “Tissue uptake: Liver” value ([1]; 96 h p.i.) was 11 ± 1 % ID/g, the “Tissue uptake: Lung” value ([1]; 96 h p.i.) was 0.91 ± 0.10 % ID/g and the “Tissue uptake: Muscle” value ([1]; 96 h p.i.) was less than 0.5 % ID/g. The “Tissue uptake: Pancreas” value ([1]; 96 h p.i.) was less than 0.5 % ID/g, the “Tissue uptake: Salivary glands” value ([1]; 96 h p.i.) was less than 0.5 % ID/g and the “Tissue uptake: Spleen” value ([1]; 96 h p.i.) was 3.1 ± 0.2 % ID/g. For the same compound, the “Tissue uptake: Stomach” value ([1]; 96 h p.i.) was 2.2 ± 0.4 % ID/g.

For `[Cl][Lu]([Cl])[Cl]` [[^177Lu]LuCl3], the “Bone uptake on SPECT images” value [2] was “higher bone uptake”.

Source: article PMC11839852, “Preclinical comparison of (radio)lanthanides using mass spectrometry and nuclear imaging techniques: biodistribution of lanthanide-based tumor-targeting agents and lanthanides in ionic form” (European Journal of Nuclear Medicine and Molecular Imaging, 2024)
